The NIST ThermoML archive (doi:10.1021/je700523b)
± gives the expanded uncertainty stated by the source.

Assay: wn = mass fraction of the nth substance listed
Settings: 298.15 K; for surface tension liquid-gas: Pendant drop shape; for mass density / viscosity: 101 kPa, Liquid; for mass density: Vibrating tube method

CCOS(=O)(=O)[O-].CCn1cc[n+](C)c1 [1-ethyl-3-methylimidazolium ethyl sulfate] + O
Settings | mass density [kg/m3] | surface tension liquid-gas [mN/m] | viscosity [mPa·s]
w2 = 0.000475 | 1236.26 ± 8.3 | 47 ± 1.2 | 91.85 ± 45
w2 = 0.00754 | 1234.51 ± 8.2 | 47.23 ± 1.2 | 83.6 ± 35
w2 = 0.0144 | 1233.93 ± 8.1 | 48.01 ± 1.3 | 70.21 ± 19
w2 = 0.02531 | 1231.35 ± 7.8 | 48.08 ± 1.3 | 65.61 ± 14
w2 = 0.03047 | 1230 ± 7.7 | 48.09 ± 1.2 | 55.78 ± 5.1
w2 = 0.03849 | 1227.15 ± 7.6 | 47.93 ± 1.2 | 41.85 ± 7.8
w2 = 0.04185 | 1228.01 ± 7.5 | 48.14 ± 1.2 | 33.3 ± 6.2
w2 = 0.05643 | 1226.3 ± 7.3 | 47.95 ± 1.2 | 30.63 ± 5.7
w2 = 0.06937 | 1222.45 ± 7 | 48.25 ± 1.2 | 24.8 ± 4.6
w2 = 0.07519 | 1219.51 ± 6.9 | 48.97 ± 1.2 | 23.63 ± 4.4
w2 = 0.09292 | 1215.44 ± 6.6 | 49.35 ± 1.2 | 17.41 ± 3.3
w2 = 0.09493 | 1214.98 ± 6.6 | 50.11 ± 1.2 | 14.73 ± 2.8
